# Results taken from US20060063179A1, “MIFL- a new partner gene of MLL and methods of use thereof” (priority 2004, published 2006).
# Target: human DNA topoisomerase II (Homo sapiens, UniProt P11388)
# Assay: DNA topoisomerase II in vitro cleavage assay
# Type: biochemical
# Settings: singly 5' end-labeled MLL intron 8 and MIFL intron 8 substrates; 147 nM enzyme, 1 mM ATP, 20 μM drug, 10 min 37° C.
# Description: FIGS. 8A-8D provide images of autoradiographs depicting MLL bcr positions 5382-5570 (FIGS. 8A and 8B) or positions 1387 to 1424 in MIFL intron 8 (FIGS. 8C and 8D) identified utilizing topoisomerase II in vitro cleavage assays. Autoradiographs show cleavage products after 10 minute incubation at 37° C. of 25 ng (30,000 cpm) singly 5' end-labeled DNA with 147 nM human DNA topoisomerase II, 1 mM ATP and, where indicated, 20 μM etoposide, etoposide catechol, etoposide quinone or doxorubicin (FIGS. 8A and 8C), or lower doxorubicin concentrations (FIGS. 8B and 8D). Specified reactions were incubated for an additional 10 minutes at 75° C. before trapping the covalent complexes (FIGS. 8A and 8C). The 5' side (-1 position) of the cleavage sites are shown by the dashes at far right. Fragments of the MLL bcr spanning positions 5382-5570 in intron 8 or fragments of MIFL spanning positions 1309-1479 in intron 8 were subcloned into BamHI-NotI sites of TOPO pCR2.1 (Invitrogen). Twenty micrograms of plasmid DNA first was treated with 400 units T4 DNA ligase (New England Biolabs; Beverly, Mass.) for 1 hour to ensure that the substrates were not nicked. […] Calf intestinal phosphatase was inactivated in 5 mM EDTA (pH 8.0) and the DNA was PCI-extracted and ethanol precipitated. The DNA was then 5' end-labeled with [γ-^32P]ATP (Amersham; Arlington Heights, Ill.) and T4 polynucleotide kinase (New England Biolabs) as described (Felix et al. (1995) Cancer Res., 55:4287-92). Alternatively, to prepare cold substrate DNA, 20 μg of BamHI/NotI-digested, dephosphorylated plasmid were phosphorylated with 10 μM ATP (Boehringer Mannheim; Indianapolis, Ind.) in otherwise similar reactions. […] DNA recovery was quantitated by optical density measurement and scintillation counting. […] Cleavage products were visualized by autoradiography and quantitated using a PhosphorImager and ImageQuant software (Molecular Dynamics; Sunnyvale, Calif.).
# Chain of human DNA topoisomerase II (P11388 whole entry): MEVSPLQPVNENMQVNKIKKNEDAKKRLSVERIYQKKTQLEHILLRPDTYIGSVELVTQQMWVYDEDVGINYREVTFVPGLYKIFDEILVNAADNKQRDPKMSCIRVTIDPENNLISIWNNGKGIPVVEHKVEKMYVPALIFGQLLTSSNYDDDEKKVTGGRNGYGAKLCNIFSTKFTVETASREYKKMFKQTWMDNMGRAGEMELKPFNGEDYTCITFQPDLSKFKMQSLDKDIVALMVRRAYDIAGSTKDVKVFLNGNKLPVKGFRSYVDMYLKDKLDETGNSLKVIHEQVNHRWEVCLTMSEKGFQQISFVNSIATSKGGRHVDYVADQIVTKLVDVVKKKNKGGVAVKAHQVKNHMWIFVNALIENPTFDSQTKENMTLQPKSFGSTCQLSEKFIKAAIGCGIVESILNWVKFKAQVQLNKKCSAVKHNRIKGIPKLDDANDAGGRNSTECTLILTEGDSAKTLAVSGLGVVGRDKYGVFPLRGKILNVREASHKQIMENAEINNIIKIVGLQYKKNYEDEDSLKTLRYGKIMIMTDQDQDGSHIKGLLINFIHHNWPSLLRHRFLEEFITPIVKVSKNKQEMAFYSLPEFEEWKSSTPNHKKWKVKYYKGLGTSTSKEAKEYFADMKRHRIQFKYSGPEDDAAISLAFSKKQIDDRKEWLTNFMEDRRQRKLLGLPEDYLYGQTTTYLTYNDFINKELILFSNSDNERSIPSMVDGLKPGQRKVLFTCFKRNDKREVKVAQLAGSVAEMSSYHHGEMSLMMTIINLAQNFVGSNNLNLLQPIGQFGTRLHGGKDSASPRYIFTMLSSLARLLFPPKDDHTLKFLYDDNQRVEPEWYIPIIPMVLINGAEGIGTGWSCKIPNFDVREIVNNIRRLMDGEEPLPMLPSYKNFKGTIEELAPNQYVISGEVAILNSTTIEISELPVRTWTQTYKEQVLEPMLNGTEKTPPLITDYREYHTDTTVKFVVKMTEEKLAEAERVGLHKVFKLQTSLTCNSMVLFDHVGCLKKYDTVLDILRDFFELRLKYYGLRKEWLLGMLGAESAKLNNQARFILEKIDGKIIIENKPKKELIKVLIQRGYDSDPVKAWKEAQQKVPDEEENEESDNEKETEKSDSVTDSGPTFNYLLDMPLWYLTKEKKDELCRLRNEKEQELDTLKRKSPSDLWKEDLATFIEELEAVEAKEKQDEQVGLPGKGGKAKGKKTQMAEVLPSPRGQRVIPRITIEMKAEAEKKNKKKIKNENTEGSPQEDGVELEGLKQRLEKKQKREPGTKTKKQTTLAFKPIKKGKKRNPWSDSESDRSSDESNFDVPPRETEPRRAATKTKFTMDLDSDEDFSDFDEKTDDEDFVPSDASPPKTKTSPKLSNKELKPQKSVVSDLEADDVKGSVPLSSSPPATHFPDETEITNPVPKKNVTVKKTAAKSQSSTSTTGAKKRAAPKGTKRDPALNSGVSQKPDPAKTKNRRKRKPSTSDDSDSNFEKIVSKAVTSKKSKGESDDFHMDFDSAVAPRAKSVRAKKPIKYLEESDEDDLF
row,SMILES,formation of DNA topoisomerase II cleavage complexes at or near the translocation breakpoints
1,"COc1cccc2c1C(=O)c1c(O)c3c(c(O)c1C2=O)C[C@@](O)(C(=O)CO)C[C@@H]3O[C@H]1C[C@H](N)[C@H](O)[C@H](C)O1 [dox, doxorubicin]",marginal activity
2,COC1=CC(C2c3cc4c(cc3C(O[C@@H]3O[C@@H]5COC(C)O[C@H]5[C@H](O)[C@H]3O)C3COC(=O)C23)OCO4)=CC(=O)C1=O (stereo partly drawn) [etoposide quinone],increased the formation of DNA topoisomerase II cleavage complexes
3,COc1cc([C@@H]2c3cc4c(cc3[C@@H](O[C@@H]3O[C@@H]5CO[C@@H](C)O[C@H]5[C@H](O)[C@H]3O)[C@H]3COC(=O)[C@H]23)OCO4)cc(OC)c1O [etoposide],increased the formation of DNA topoisomerase II cleavage complexes
